Measurements from ChEMBL document CHEMBL1124229, “Spiro hydantoin aldose reductase inhibitors” (J Med Chem, 1988).

What was measured:
[1] = target: T1, Aldo-keto reductase family 1 member B1 (Bos taurus, UniProt P16116); test: Inhibition of partially purified calf lens aldose reductase; value ranges from 10E-4 to 10e-5 M
Rattus norvegicus [2] = organism: Rattus norvegicus; test: Ability to cause 50% reduction in sorbitol levels of sciatic nerve of streptozotocinized rats was determined; format: functional
[3] = target: T1, Aldo-keto reductase family 1 member B1; test: In vitro inhibition of partially purified calf lens aldose reductase
[4] = pKa in DMF/H2O was measured; format: physicochemical
Rattus norvegicus [5] = organism: Rattus norvegicus; test: 50% reduction in sorbitol accumulation in isolated sciatic nerves incubated in the presence of high glucose concentration; format: functional; conditions: Sciatic nerve
Rattus norvegicus [6] = organism: Rattus norvegicus; test: Dose causing 50% reduction in sorbitol accumulation in sciatic nerves of streptozotocinized rats, (tid)
[7] = target: T1, Aldo-keto reductase family 1 member B1; test: In vitro inhibition of partially purified calf lens aldose reductase; value ranges from 10E-5 to 10E-6
[8] = target: T1, Aldo-keto reductase family 1 member B1; test: In vitro inhibitory activity towards partially purified calf lens aldose reductase; value ranges from 10E-6 - 10E-7
[9] = Rattus norvegicus, Sciatic nerve, read-out: ED50

| SMILES | ED50 (Rattus norvegicus [2]; [9]) [mg/kg] | IC50 [3] [µM] | also measured |
| --- | --- | --- | --- |
| O=C1NC(=O)C2(CCOc3ccc(Cl)cc32)C(=O)N1 | > 10 |  | IC50 [1]: 100 µM |
| Cc1cc(Cl)cc2c1OCCC21NC(=O)NC1=O (centres undefined) | < 1.5 | < 0.1 |  |
| O=C1NC(=O)C2(CCCc3sccc32)N1 (centres undefined) | 25 | 100 |  |
| O=C1NC(=O)C2(CCOc3ccc(Oc4ccccc4)cc32)N1 (centres undefined) | 25 |  |  |
| O=C1NC(=O)[C@@]2(CCOc3ccc(Cl)cc32)O1 | 2.5 | 0.1 | pKa [4]: 5.6; IC50 (Rattus norvegicus [5]): 10 µM; ED50 (Rattus norvegicus [6]): 1e-05 M/kg |
| O=C1CC2(CCc3ccccc32)C(=O)N1 (centres undefined) | > 2.5 | > 100 |  |
| O=C1NC(=O)C2(CCOc3ccccc32)N1 (centres undefined) | 5 | 10 |  |
| O=C1NC(=O)C2(CCSc3c(Cl)ccc(Cl)c32)N1 (centres undefined) |  | > 100 |  |
| O=C1NC(=O)[C@@]2(CCOc3ccc(F)cc32)N1 (stereo in doubt; 115) [SORBINIL] |  |  | pKa [4]: 8.7; IC50 (Rattus norvegicus [5]): 1 µM; ED50 (Rattus norvegicus [2]): 0.25 mg/kg; ED50 (Rattus norvegicus [6]): 1e-05 M/kg |
| S=C1NC(=S)C2(CCCc3ccccc32)N1 (centres undefined) | > 25 | > 100 |  |
| CC(C)(C)c1ccc2c(c1)C1(CCO2)NC(=O)NC1=O (centres undefined) |  |  | IC50 [1]: 100 µM |
| O=C1NC(=O)[C@]2(CCSc3ccc(F)cc32)N1 |  |  | IC50 [7]: 10 µM |
| O=C1NC(=O)C2(CCCC3CCCCC32)N1 (centres undefined) | < 25 | > 100 |  |
| O=C1NC(=O)C2(CCc3ccc(O)cc32)N1 (centres undefined) | > 10 |  | IC50 [1]: 100 µM |
| O=C(O)C1CCSc2ccccc21 (centres undefined) |  | 100 |  |
| O=C1NC(=O)C2(CCOc3ccc(Cl)cc32)O1 (centres undefined) | > 1.5 |  |  |
| O=C1NC(=O)[C@]2(CCOc3ccc(F)cc32)N1 | 25 |  |  |
| O=C(O)C1CCCc2ccccc21 (centres undefined) |  | > 100 |  |
| O=C(O)C1CCSc2cc(Cl)c(Cl)cc21 (centres undefined) |  | 10 |  |
| O=C1NC(=O)C2(CCOc3c(Cl)cc(Cl)cc32)N1 (centres undefined) | 0.25 | < 0.1 |  |
| O=C1NC(=O)C2(CCOc3cc(Cl)c(Cl)cc32)N1 (centres undefined) | < 1.5 | < 0.1 |  |
| O=C1NC(=O)C2(CCS(=O)(=O)c3ccccc32)N1 (centres undefined) | 20 |  | IC50 [7]: 10 µM |
| O=C(O)CC1(CC(=O)O)CCCC1 | ~500 |  | IC50 [7]: 10 µM; IC50 [8]: 1 µM |
| O=C1N=C(O)O[C@@]12CCOc1ccc(Cl)cc12 |  |  | IC50 [1]: 100 µM |
| c1ccc2c(c1)CCC21CCNC1 (centres undefined) | > 25 | > 100 |  |
| O=C1NC(=O)C2(CCOc3ccc(CN4CCCCC4)cc32)N1 (centres undefined) |  | 100 |  |
| O=C1NC(=O)[C@@]2(CCOc3ccc(F)cc32)N1 (stereo in doubt; 32) [SORBINIL] |  |  | ED50 (Rattus norvegicus [2]): 0.75 mg/kg |

| SMILES | ED50 (Rattus norvegicus [2]; [9]) [mg/kg] | IC50 [3] [µM] | also measured |
| --- | --- | --- | --- |
| O=C1NC(=O)C2(CCSc3c(Cl)cc(Cl)cc32)N1 (centres undefined) |  | < 0.1 |  |
| O=C1NC(=O)C2(CCc3cc4c(cc32)OCO4)N1 (centres undefined) | > 5 |  | IC50 [7]: 10 µM |
| O=C(O)C1CCSc2ccc(Cl)cc21 (centres undefined) |  | < 100 |  |
| COc1ccc2c(c1)C1(CC2)NC(=O)NC1=O (centres undefined) | 10 | 10 |  |
| O=C1NC(=O)C2(CCOc3c(F)cccc32)N1 (centres undefined) |  | < 100 |  |
| O=C1NC(=O)C2(CCOc3c2ccc2ccccc32)N1 (centres undefined) | > 1.5 | < 100 |  |
| O=C1CC2(CCCc3ccccc32)CN1 (centres undefined) | > 25 | > 100 |  |
| O=C1CCC2(CCCc3ccccc32)C(=O)N1 (centres undefined) | > 25 | > 100 |  |
| O=C1NC(=O)C2(CCOc3ccc4ccccc4c32)N1 (centres undefined) | > 1.5 | 10 |  |
| CC1CCc2ccccc2C12NC(=O)NC2=O (centres undefined) | > 25 | 100 |  |
| Cc1cc(C)c2c(c1C)OCCC21NC(=O)NC1=O (centres undefined) |  | 1 |  |
| O=C1NC(=O)C2(CC[S+]([O-])c3ccc(F)cc32)N1 (centres undefined) | > 1.5 |  | IC50 [8]: 1 µM |
| O=C1CC2(CCCc3ccccc32)C(=O)N1 (centres undefined) | 5 | > 100 |  |
| CS(=O)(=O)c1ccc2c(c1)C1(CCO2)NC(=O)NC1=O (centres undefined) |  |  | IC50 [1]: 100 µM |
| O=C1NC(=O)C2(CCc3ccc(F)cc32)N1 (centres undefined) | 5 |  | IC50 [1]: 100 µM |
| O=C1NC(=O)C2(CCSc3cc(Cl)c(Cl)cc32)N1 (centres undefined) | 2.5 | < 0.1 |  |
| Cc1cc2c(n1C)CCCC21NC(=O)NC1=O (centres undefined) | > 25 | > 100 |  |
| O=CNC(=O)NC1CCc2ccccc21 (centres undefined) | > 10 | > 100 |  |
| O=C1NC(=O)C2(CCS(=O)(=O)c3ccc(F)cc32)N1 (centres undefined) | 2.5 |  | IC50 [8]: 1 µM |
| Cc1cc(C)c2c(c1)C1(CCO2)NC(=O)NC1=O (centres undefined) | > 1.5 | 1 |  |
| O=C1NC(=O)C2(CCCc3ccccc32)O1 (centres undefined) | > 50 | 10 |  |
| Cc1cc(Cl)cc2c1OCCC2C(=O)O (centres undefined) |  |  | IC50 [7]: 10 µM |
| O=C1NC(=O)C2(CCCc3[nH]ccc32)N1 (centres undefined) | > 25 | > 100 |  |
| O=C1NC(=O)C2(CCSc3ccc(F)cc32)N1 (centres undefined) | 1.5 |  | IC50 [8]: 1 µM |
| O=C1NC(=O)C2(CCOc3cc(C(F)(F)F)ccc32)N1 (centres undefined) | 5 | 1 |  |
| O=C1CC2(CCOc3ccc(Cl)cc32)C(=O)N1 (centres undefined) | > 5 | < 100 |  |
